Reference: the NIST ThermoML archive (doi:10.1016/j.jct.2008.10.010)

Assay: molar heat capacity at constant pressure; xn = mol fraction of the nth substance listed
Conditions: 101.3 kPa, Liquid, Small sample (50 mg) DSC

CCC(C)(C)O [2-methylbutan-2-ol] + CCCCCCC
molar heat capacity at constant pressure [J/K/mol]
Conditions	284.14 K	284.16 K	284.18 K	285.15 K	285.51 K	286.16 K	287.14 K	288.15 K
x1 = 0.0061	220.41	–	–	220.65	–	220.9	221.16	221.55
x1 = 0.0249	226.02	–	–	226.27	–	226.64	226.92	227.34
x1 = 0.0494	229.4	–	–	229.86	–	230.34	230.72	231.29
x1 = 0.1	–	232.58	–	233.16	–	233.84	234.39	235.13
x1 = 0.1547	–	234.25	–	234.99	–	235.78	236.4	237.25
x1 = 0.1999	234.97	–	–	235.77	–	236.66	237.42	238.28
x1 = 0.2993	–	235.98	–	236.86	–	237.91	238.78	–
x1 = 0.4051	235.79	–	–	236.78	–	237.9	238.87	–
x1 = 0.4986	–	235.43	–	236.52	–	237.63	238.65	–
x1 = 0.5981	234.72	–	–	235.88	–	237.03	238.11	–
x1 = 0.7015	233.37	–	–	234.58	–	235.81	236.94	–
x1 = 0.8023	–	–	232.34	233.57	–	234.67	235.73	–
x1 = 0.9139	231.9	–	–	–	233.61	234.27	235.37	–
x1 = 0.9609	232.4	–	–	233.54	–	234.56	235.45	–
